In US5391800A, “Method for inhibition of cell motility by sphingosine-1-phosphate, its derivatives and mimetics and method of synthesizing sphingosine-1-phosphate and its derivatives” (The Biomembrane Institute, priority 1993, dated 1995):

What was measured:
B16/F1 melanoma cells [1] = assay: Chemotactic motility of B16/F1 cells through MATRI-GEL-coated transwell filter; assay type: cell-based, mouse; conditions: percent relative to control; mean ± S.E., n = 3 or 4; concentration not given
Method: (§1) The assays for determining chemotactic cell motility and chemoinvasion can be performed using transwell plates with a polycarbonate membrane filter (pore size 8 μm) (Costar Scientific, Cambridge, Mass.). Aliguots, e.g., 50 μl, of an aqueous solution of MATRI-GEL (Collaborative Research, Bedford, Mass.) containing SPN-1-P or other inhibitor (e.g., 20 μg/ml for chemotactic motility assay or 200 μg/ml for chemoinvasion assay), is added to each well and dried overnight. The filter is then fitted onto the lower chamber plate. The lower chamber can contain conditioned medium (CM) (i.e., medium used for splenic stromal cell culture, and containing motility factor secreted by these cells), e.g., 0.6 ml, with or without SPN-1-P or other inhibitor. To the upper chamber is added, e.g., about 100 μl, of cell suspension (5×10^4 cells/ml for invasion assay, 5×10^5 cells/ml for motility assay), which is then incubated in 5% CO2 at 37° C. for 70-72 hours (invasion assay) or 20 hours (motility assay). After incubation, cells remaining in the upper chamber are wiped off with a cotton swab, and cells which had migrated to the lower chamber side of the filter are fixed in methanol for 30 seconds and stained with 0.05% toluidine blue. The filter is removed, the stain is solubilized in 10% acetic acid (e.g., 0.1 ml for invasion assay, 0.5 ml for motility assay), and color intensity (optical density) is quantitated by ELISA reading at 630 nm. Using SPN-1-P, a linear relationship was observed between cell number and toluidine blue optical density (FIG. 7).
(§2) Assays were performed using transwell plates with polycarbonate membrane filters (pore size 8 μm) (Costar Scientific, Cambridge, Mass.). 50 μl aliguots of an aqueous solution of MATRI-GEL (Collaborative Research, Bedford, Mass.) containing 20 μg/ml (for chemotactic motility assay) or 200 μg/ml (for chemoinvasion assay) were added to each well and dried overnight. The filter was fitted onto the lower chamber plate. The lower chamber contained 0.6 ml conditioned medium (CM) (i.e., medium used for splenic stromal cell culture, and containing motility factor secreted by these cells) with or without the suspected inhibitor. To the upper chamber was added 100 μl of cell suspension (5×10^4 cells/ml for invasion assay, 5×10^5 cells/ml for motility assay), which was then incubated in 5% CO2 at 37° C. for 70-72 hours (invasion assay) or 20 hours (motility assay). After incubation, cells remaining in the upper chamber were wiped off with a cotton swab, and cells which had migrated to the lower chamber side of the filter were fixed in methanol for 30 seconds and stained with 0.05% toluidine blue. The filter was removed, the stain was solubilized in 10% acetic acid (0.1 ml for invasion assay, 0.5 ml for motility assay), and color intensity (optical density) was quantitated by ELISA reading at 630 nm. A linear relationship was observed between cell number and toluidine blue optical density (FIG. 7.).
In experiments with different quantities of MATRI-GEL, cell migration through transwell filter was maximal with 1 μg/well was applied, and when CM was used (FIG. 8). Therefore, chemotactic cell motility, as affected by various SPN derivatives, was assayed under these conditions.
*Mean ± S.E. of percent relative to control (n = 4). Actual O.D. value
and 0.147 (HT1080). 6 × 10^4 cells were placed on a transwell
filter coated with 1.0 μg MATRIGEL in the upper chamber, and cultured
for 18 hours in the presence of CM and SPN1-P in the lower chamber.

B16/F1 melanoma cells [2] = assay: Chemoinvasion of B16/F1 cells through thick MATRI-GEL layer on transwell filter; assay type: cell-based, mouse; conditions: percent relative to control; mean ± S.E., n = 3 or 4; concentration not given; 4200 min
Method: as §1, §2
Chemoinvasion was measured by the ability of tumor cells in CM (as described above) to migrate through a thick layer of MATRI-GEL during a prolonged incubation period (70 hours). This property is distinct from chemotactic cell motility, which involves a much shorter incubation period (20 hours) and a thin layer of MATRI-GEL. For the chemoinvasion assay, 10 μg of MATRI-GEL was applied to a polycarbonate transwell filter and migration was observed following 70 hours incubation (based on results shown in FIG. 8).

[3] = system: PKC of B16/F1 melanoma cells; assay: PKC activity of B16/F1 melanoma cells (32P incorporation into histone IIIS); assay type: biochemical, mouse; conditions: concentration not given
Method: Effects of SPN derivatives on protein kinase C activity and cell growth of B16/F1 cells was also investigated. […] Toxicity of these compounds to B16/F1 cells and human neutrophils was also examined using a trypan blue exclusion assay after 1 hour incubation with the compounds.
*Mean ± S.E. (n = 3). For controls (defined as 100%), PKC activity was
33225 cpm per tube per 20 min, as measured by ^32 P incorporation int

human neutrophils = assay: Phagokinetic activity of human neutrophils on gold sol-coated plates; assay type: cell-based; conditions: 4.5 μM; 2 hours; mean ± S.D.; control 6.3 ± 2.3
Method: Phagokinetic activity is measured by the ability of cells to ingest foreign particles while moving. Cell motility can be estimated as the area of a phagokinetic track on gold sol particle-coated plates as previously described {Albrecht-Buehler, Cell, 11:395 (1977)}. A uniform coating of gold particles is prepared on glass coverslips precoated with bovine serum albumin, and coverslips are rinsed repeatedly to remove non-adhering or loosely-adhering gold particles. Freshly-prepared neutrophils or tumor cells detached from culture are placed in a Petri dish containing the gold sol-coated plate, and incubated for about 2 hours (for human neutrophils) or about 18 hours (for tumor cells). The coverslips are fixed for 1 hour in a 4% formaldehyde solution in phosphate-buffered saline (PBS) and mounted on microscope slides. The phagokinetic tracks are observed on a television connected to a light microscope (Nikon, Tokyo, Japan). Tracks on the television are transferred to translucent sheets, which are then photocopied. Phagokinetic activity is quantitated by cutting and weighing the swept area in the copy.
Cell motility was estimated as the area of phagokinetic track on gold sol particle-coated plates as previously described {Albrecht-Buehler, Cell, 11:395 (1977)}. A uniform coating of gold particles was prepared on glass coverslips precoated with bovine serum albumin, and the coverslips were rinsed repeatedly to remove non-adhering or loosely-adhering gold particles. Freshly-prepared neutrophils or tumor cells detached from culture were placed in a Petri dish containing the gold sol-coated plate, and incubated for 2 hours (for human neutrophils) or 18 hours (for tumor cells). The coverslips were fixed for 1 hour in 4% formaldehyde solution in phosphate-buffered saline (PBS) and mounted on microscope slides. The phagokinetic tracks were observed on a television connected to a light microscope (Nikon, Tokyo, Japan). Tracks on the television were transferred to translucent sheets, which were then photocopied. Phagokinetic activity was quantitated by cutting and weighing the swept area in the copy.
**mean ± S.D. Freshlyprepared neutrophils (1 × 10^4
cell/plate) were seeded on a coverslip precoated with gold sol particles
in the presence or absence of test compound. 2 hours later, incubation wa
terminated by adding 200 μl of 10% formaldehyde and the cleared area
was estimated as described in the text.

B16/F1 melanoma cells [4] = assay: Growth of B16/F1 melanoma cells (cell count after 48 hr); assay type: cell-based, mouse; conditions: Mus musculus, B16-F1; 10 μM; 48 hr; control = 100%; mean ± S.E., n = 3
Method: *Mean ± S.E. (n = 3). For controls (defined as 100%), cell number was
10^5 cells were seeded and
cultured on a 35 mm plastic dish in Dulbecco's modified Eagle's medium
containing 2% fetal bovine serum in the presence or absence of SPN
derivatives. 48 hr later, cells were counted.

Compound	% motility (B16/F1 melanoma cells [1])	% invasion (B16/F1 melanoma cells [2])	PKC inhibition [3]	Cleared area (human neutrophils)	activity at 10 µM (B16/F1 melanoma cells [4])
ceramide monohexoside [CMH]	162 ± 29%	178 ± 70%	–	–	–
NCCO [ethanolamine]	85 ± 13%	140 ± 41%	–	–	–
CCCCCCCCCCCCC/C=C/[C@@H](O)[C@H](CO)N(C)C [DMS, N,N-dimethylsphingosine]	–	–	in striking contrast to DMS and TMS, SPN-1-P does not inhibit PKC	–	–
phosphatidylethanolamine	107 ± 18%	104 ± 37%	–	–	–
sphingomyelin	82 ± 11%	138 ± 18%	–	–	–
NCCOP(=O)(O)O [phosphoethanolamine]	86 ± 20%	160 ± 57%	–	5.9 ± 2.5 × 10^3 μm^2	–
CCCCCCCCCCCCC/C=C/[C@@H](O)[C@H](CO)NC(C)=O [N-acetyl-SPN]	99 ± 16%	96 ± 14%	–	–	102 ± 4%
ceramide	–	–	–	5.7 ± 3.0 × 10^3 μm^2	–
